Counter-ions that a name gives are not always drawn. One block for each compound: values may come before it.
Experiments:
[1] = Concentration of ampicillin in blood plasma of rats after oral administration (Experiment a); conditions: rat, in vivo, 20 mg/kg
Text: Now, for showing the excellent properties of the compounds of this invention, the experiments of testing the concentration of the compound in blood when it was orally administered and the results thereof are shown in the following examples together with the results of the tests made about ampicillin and pivampicillin.
Each of ampicillin tri-hydrate, pivampicillin hydrochloride-mono-hydrate, and the hydrochloride of the aimed compound of this invention was orally administered to rats (male, each group five rats) in an amount of 20 mg/kg as ampicillin and after 0.5 hour, the blood was drawn and the concentration of ampicillin in the blood plasma was measured.

[2] = background statement; cited from earlier work
[3] = Chemical Abstracts 45, 4824h (1951); 55, 8653d (1961); cited from earlier work
liver = conditions: Biochem. Pharmacol. 16, 1533-1537 (1967) and others; cited from earlier work

SMILES: CC1(C)S[C@@H]2[C@H](NC(=O)[C@H](N)c3ccccc3)C(=O)N2[C@H]1C(=O)O [Ampicillin tri-hydrate, reference compound]
concentration at 0.5 h [1]: 1000 ng/mL

Concentration of ampicillin in blood plasma ([1]; 30 min): 5580 ng/mL
SMILES: CC1(C)S[C@@H]2[C@H](NC(=O)[C@H](N)c3ccccc3)C(=O)N2[C@H]1C(=O)OC1OC(=O)c2ccccc21 (some centres unmarked) [Example 2, ampicillin 1-oxo-1,3-dihydroisobenzofuran-3-yl ester hydrochloride]

SMILES: CC1(C)S[C@@H]2C(NC(=O)C(N)c3ccccc3)C(=O)N2[C@H]1C(=O)O (stereo partly drawn) [ampicillin, 6-(α-aminophenylacetamido)penicillanic acid]
extent of absorption by oral administration [2]: not necessarily sufficient

SMILES: C=O [formaldehyde]
toxic property compared with other aldehydes of larger molecular weight [3]: about 50 times
influence on liver (liver): bad influences on a liver

— patent publication US3951954A, “Novel oxofuryl ester derivatives of penicillin and cephalosporin” (priority 1971, dated 1976)
